Patent US9089139B2, “Agri-horticultural pest control compositions comprising 4-(3-butynyl)aminopyrimidine derivatives” (SDS Biotech K. K., priority 2011, dated 2015)

SMILES | melting point [°C]
COCc1cc(F)c(F)cc1C#CCCNc1ncnc2ccccc12 [compound 146] | 121 to 125
CCOC(=O)c1sc(C#CCCNc2ncnc3ccccc23)nc1C [compound 214] | 139 to 140
C(#Cc1ccccc1)CC(Nc1ncnc2ccccc12)c1ccccc1 (stereo not shown) [Compound No. 301, 4-[(1,4-diphenyl-3-butynyl)amino]quinazoline] | 141 to 143
CCOC(=O)c1ccc(C#CCCNc2ncnc3ccccc23)cc1 [compound 129] | 137 to 138
C=C(C)CCc1ccccc1C#CCCNc1ncnc2ccccc12 [compound 105] | 92 to 94
CC(CC#Cc1cscn1)Nc1ncnc2ccccc12 (stereo not shown) [compound 291] | 142 to 145
O=[N+]([O-])c1cccc(C#CCCNc2ncnc3sccc23)c1 [compound 39] | 171 to 172
Clc1ncnc(NCCC#Cc2ccccc2)c1Cc1ccccc1 [compound 372] | 157 to 158
Fc1cccc(F)c1C#CCCNc1ncnc2sccc12 [compound 42] | 179 to 181
C(#Cc1cncs1)CCNc1ncnc2sccc12 [Compound No. 61] | 156 to 158
N#Cc1cccc(Oc2nc(C#CCCNc3ncnc4ccccc34)cs2)c1 [compound 222] | 137 to 139
Fc1cc(Cl)ccc1C#CCCNc1ncnc2ccccc12 [compound 164] | 198 to 199
C(#Cc1ccncc1)CCNc1ncnc2sccc12 [compound 57] | 140 to 141
COc1ccc(C#CCCNc2ncnc3sccc23)cc1OC [compound 24] | 182 to 184
C(#Cc1csc(-c2ccccc2)n1)CCNc1ncnc2sccc12 [Compound No. 76, 4-[4-(2-Phenylthiazol-4-yl)-3-butynylamino]thieno[2,3-d]pyrimidine] | 134 to 136
OCc1cnccc1C#CCCNc1ncnc2ccccc12 [compound 201] | 182 to 186
Clc1cccc(Cl)c1C#CCCNc1ncnc2ccccc12 [compound 174] | 153 to 155

SMILES | melting point [°C]
COc1cccc(Oc2nc(C#CCCNc3ncnc4ccccc34)cs2)c1 [compound 216] | 77 to 79
C(#Cc1csc(-c2ccoc2)n1)CCNc1ncnc2sccc12 [compound 78] | 140 to 142
C(#Cc1nccs1)CCNc1ncnc2sccc12 [compound 62] | 128 to 129
CCOC(=O)c1cnc(C#CCCNc2ncnc3ccccc23)s1 [compound 213] | 113 to 114
Clc1ccc(C#CCCNc2ncnc3ccccc23)c(Cl)c1 [compound 172] | 182 to 183
COc1ccc(Oc2nc(C#CCCNc3ncnc4ccccc34)cs2)cc1 [compound 217] | 150 to 152
CC(=O)OCc1nc(C#CCCNc2ncnc3sccc23)cs1 [compound 73] | 128 to 129
N#Cc1c(F)cccc1C#CCCNc1ncnc2ccccc12 [compound 165] | 163 to 164
FC(F)(F)c1ccccc1Oc1nc(C#CCCNc2ncnc3ccccc23)cs1 [compound 218] | 159 to 161
Cc1scnc1C#CCCNc1ncnc2sccc12 [compound 65] | 148 to 150
Clc1ccc(Cl)c(C#CCCNc2ncnc3ccccc23)c1 [compound 173] | 176 to 177
C(#Cc1ccc2ccccc2c1)CCNc1ncnc2ccccc12 [compound 183] | 159 to 160
COc1ccc(Cl)cc1C#CCCNc1ncnc2ccccc12 [compound 179] | 147 to 149
FC(F)(F)c1ccc(Oc2nc(C#CCCNc3ncnc4ccccc34)cs2)cc1 [compound 220] | 137 to 139
FC(F)(F)c1ccc(C#CCCNc2ncnc3ccccc23)cn1 [compound 198] | 134 to 139
Cc1cc(C)nc(C#CCCNc2ncnc3sccc23)n1 [compound 59] | 112 to 113
C(#Cc1ccccc1)CCNc1ncnc2[nH]cnc12 [compound 378] | 207 to 208
